The experiment concerns adult mongrel dogs. As to the kind of experiment: Renal vasodilating activity in anesthetized dogs. The class given is in vivo, dog (adult mongrel). The following applies: Canis lupus familiaris; for change in vivo at 0.2 mg/kg: 0.2 mg/kg intravenous. The protocol: Goldberg et al, J. Pharmacol. Exp. Ther., 163, 188 (1968), performed an investigation of the structural requirements for dopamine-like renal vasodilation of phenethylamines and apmorphine. The following procedure is a variation of the assay described in that report.
Adult mongrel dogs were anesthetized and surgically prepared for electromagnetic measurement of renal artery blood flow. A carotid artery was cannulated for measuring arterial blood pressure, and drugs were administered intravenously or intraarterially (via the renal artery). Heart rate was monitored with a cardiotachometer. Renal vascular resistance was calculated as the ratio of mean arterial blood pressure/renal artery blood flow. Dopamine was infused intravenously at […] for ten minutes (at an infusion rate of about 1 ml/min) to determine responsiveness of each dog to renal dopamine receptor stimulation. Cumulative dose-response data were obtained by infusing a compound of this invention at progressively increasing (usually three-fold) infusion rates, esch dose being infused for five minutes. The maximum percent increase from pre-drug control in renal artery blood flow (or a decrease in renal vascular resistance) was determined for each infusion dose.
RBF values are percent increase in renal blood flow. RVR values are percent increase in renal vascular resistance. MABP and HR are increases in mean arterial blood pressure and heart rate, respectively, relative to controls.

Setting [1] is: iv, read-out: HR, percent change in heart rate.
Setting [2] is: 6.2 mg/kg intravenous, relative to controls, read-out: HR, percent change in heart rate.
Setting [3] is: 6.2 mg/kg intravenous, relative to controls, read-out: RBF, renal blood flow.
Setting [4] is: 6.2 mg/kg intravenous, relative to controls, read-out: RVR, renal vascular resistance.
Where [5] appears, read: 6.2 mg/kg intravenous, relative to controls, read-out: MABP, mean arterial blood pressure.
Where [6] appears, read: 1.2 mg/kg intravenous, relative to controls, read-out: HR, percent change in heart rate.
Where [7] appears, read: 1.2 mg/kg intravenous, relative to controls, read-out: MABP, mean arterial blood pressure.
[8] abbreviates: 1.2 mg/kg intravenous, relative to controls, read-out: RBF, renal blood flow.
The mark [9] stands for this setting: 1.2 mg/kg intravenous, relative to controls, read-out: RVR, renal vascular resistance.

Like-named read-outs stand apart in the source and are kept apart here.

In the case of `COc1cc2c(C)nc(O)c(NC(=O)NCCCl)c2cc1OC` [BAY], the change in vivo at 6.2 mg/kg by setting is: under setting [1], 27%; (iv, read-out: MABP, mean arterial blood pressure) 19%; (iv, read-out: RBF, renal blood flow) 85%; (iv, read-out: RVR, renal vascular resistance) -35%.
Take `COc1cccc(NC(=O)Nc2c(O)nc(C)c3cc(OC)c(OC)cc23)c1` [BAE]: the change in vivo at 6.2 mg/kg under setting [2] is -2%, the change in vivo at 6.2 mg/kg under setting [3] turned out to be 58% and the change in vivo at 6.2 mg/kg under setting [4] is -36%.
For `COc1cc2c(C)nc(O)c(NC(=O)Nc3cccc(C(F)(F)F)c3)c2cc1OC` [BAG], the change in vivo at 6.2 mg/kg under setting [2] was -10%, the change in vivo at 6.2 mg/kg under setting [5] stood at 2%, the change in vivo at 6.2 mg/kg under setting [3] turned out to be 23% and the change in vivo at 6.2 mg/kg under setting [4] was -16%.
As for `COc1cc2c(C)nc(O)c(NC(=O)Nc3ccc(N)cc3)c2cc1OC` [BBZ], the change in vivo at 1.2 mg/kg is, setting by setting: under setting [6], 8%; under setting [7], 5%; under setting [8], 22%; under setting [9], -12%.
For the compound `CCCCCCCCNC(=O)Nc1c(O)nc(C)c2cc(OC)c(OC)cc12` [BBF], the change in vivo at 1.2 mg/kg is, setting by setting: under setting [6], -14%; under setting [8], 19%; under setting [9], -24%.
As for `COc1cc2c(C)nc(O)c(NC(N)=O)c2cc1OC` [Compound BM, 6,7-Dimethoxy-3-hydroxy-1-methyl-4-ureidoisoquinoline], the change in vivo at 6.2 mg/kg reads like this: under setting [2], -10%; under setting [5], 18%; under setting [3], 59%; under setting [4], -23%.
Turning to `COc1cc2c(C)nc(O)c(NC(=O)Nc3ccc([N+](=O)[O-])cc3)c2cc1OC` [BAR], the change in vivo at 1.2 mg/kg by setting is: under setting [8], 9%; under setting [9], -8%.
Turning to `CNC(=O)Nc1c(O)nc(C)c2cc(OC)c(OC)cc12` [BBY], the change in vivo at 1.2 mg/kg was -4% under setting [6], 6% under setting [7], 21% under setting [8] and -12% under setting [9].
Consider `COc1ccc(NC(=O)Nc2c(O)ncc3cc(OC)c(OC)cc23)cc1` [BBG], for which the change in vivo at 1.2 mg/kg under setting [1] came to 12%, the change in vivo at 1.2 mg/kg under setting [7] is 1%, the change in vivo at 1.2 mg/kg under setting [8] turned out to be 15% and the change in vivo at 1.2 mg/kg under setting [9] is -11%.
Consider `COc1cc2c(C)nc(O)c(NC(=O)Nc3ccc(C(=O)O)cc3)c2cc1OC` [Compound BCA, 4-[N-(4-Carboxyphenyl)ureido]-3-hydroxy-6,7-dimethoxy-1-methylisoquinoline.5/2 Hydrate], for which the change in vivo at 1.2 mg/kg under setting [6] was -12%, the change in vivo at 1.2 mg/kg under setting [7] was -1%, the change in vivo at 1.2 mg/kg under setting [8] stood at 40% and the change in vivo at 1.2 mg/kg under setting [9] is -28%.
`CCOc1cc2c(C)nc(O)c(NC(=O)NCc3ccccc3)c2cc1OC` [BAJ]: the change in vivo at 6.2 mg/kg runs as follows: under setting [2], -6%; under setting [5], -11%; under setting [3], 54%; under setting [4], -32%.
On to `COc1cc2c(C)nc(O)c(NC(=O)NCCc3ccccc3)c2cc1OC` [BBM], for which the change in vivo at 0.2 mg/kg (relative to controls, read-out: HR, percent change in heart rate) is -1%; the change in vivo at 0.2 mg/kg (relative to controls, read-out: RBF, renal blood flow) was determined as 12%; the change in vivo at 0.2 mg/kg (relative to controls, read-out: RVR, renal vascular resistance) was -10%.
Turning to `COc1cc2c(C)nc(O)c(NC(=O)Nc3ccc(C(F)(F)F)cc3)c2cc1OC` [BAD], the change in vivo at 6.2 mg/kg runs as follows: under setting [1], 10%; under setting [5], 4%; under setting [3], 49%; under setting [4], -29%.
Regarding `CCNC(=O)Nc1c(O)nc(C)c2cc(OC)c(OC)cc12` [BCD], the change in vivo at 1.2 mg/kg runs as follows: under setting [8], 28%; under setting [9], -22%.
As for `COc1cc2c(C)nc(O)c(NC(=O)Nc3ccc(C#N)cc3)c2cc1OC` [BBX], the change in vivo at 1.2 mg/kg runs as follows: under setting [6], -11%; under setting [7], -11%; under setting [8], 12%; under setting [9], -20%.
With `COc1cc2c(C)nc(O)c(NC(=O)Nc3ccc([S+](C)[O-])cc3)c2cc1OC` (stereo not drawn) [Compound BCB, Hydrate], the change in vivo at 1.2 mg/kg is -1% under setting [6], 5% under setting [7], 12% under setting [8] and -6% under setting [9].
For `COc1ccc(NC(=O)Nc2c(O)nc(C)c3cc(OC)c(OC)cc23)cc1OC` [BBL], the change in vivo at 1.2 mg/kg is, setting by setting: under setting [6], -1%; under setting [7], 5%; under setting [8], 13%; under setting [9], -8%.
Regarding `COc1cc2c(C)nc(O)c(NC(=O)NC(C)(C)C)c2cc1OC` [BAU], the change in vivo at 6.2 mg/kg is 4% under setting [2], -3% under setting [5], 12% under setting [3] and -13% under setting [4].
Take `COc1cc2c(C)nc(O)c(NC(=O)Nc3cccc(Cl)c3)c2cc1OC` [BAF]: the change in vivo at 6.2 mg/kg runs as follows: under setting [2], 4%; under setting [3], 30%; under setting [4], -20%.
For the compound `COC(=O)Nc1c(O)nc(C)c2cc(OC)c(OC)cc12` [BBR], the change in vivo at 6.2 mg/kg reads like this: under setting [2], 27%; under setting [5], -7%; under setting [3], 30%; under setting [4], -29%.
On to `CCCCOC(=O)Nc1c(O)nc(C)c2cc(OC)c(OC)cc12` [Compound BBP, 4-[N-(n-Butoxycarbonyl)amino]-3-hydroxy-6,7-dimethoxy-1-methylisoquinoline], for which the change in vivo at 6.2 mg/kg by setting is: under setting [5], 1%; under setting [3], 77%; under setting [4], -42%.
As to `CCOc1cc2c(C)nc(O)c(NC(=O)Nc3ccc(C(F)(F)F)cc3)c2cc1OC` [BV], the change in vivo at 6.2 mg/kg reads like this: under setting [2], 26%; under setting [5], -6%; under setting [3], 25%; under setting [4], -24%.
For the compound `COc1cc2c(C)nc(O)c(NC(=O)NC3CCCCC3)c2cc1OC` [BBE], the change in vivo at 1.2 mg/kg by setting is: under setting [6], 2%; under setting [7], 3%; under setting [8], 24%; under setting [9], -16%.
Regarding `COc1ccc(NC(=O)Nc2c(O)nc(C)c3cc(OC)ccc23)cc1` [BBS], the change in vivo at 1.2 mg/kg under setting [6] was determined as 5%, the change in vivo at 1.2 mg/kg under setting [7] came out at 2%, the change in vivo at 1.2 mg/kg under setting [8] worked out at 17% and the change in vivo at 1.2 mg/kg under setting [9] is -4%.
In the case of `COc1ccc(NC(=O)Nc2c(O)nc(C)c3cc(OC)c(OC)cc23)cc1` [BP, 4-(N'-para-methoxyphenylureido)-3-hydroxy-6,7-dimethoxy-1-methylisoquinoline], the change in vivo at 6.2 mg/kg reads like this: under setting [2], 2%; under setting [5], 12%; under setting [3], 68%; under setting [4], -32%.
Turning to `COc1ccc(NC(=O)Nc2c(O)nc(C)c3cc(OC)c(OC)cc23)c(OC)c1` [BAP], the change in vivo at 1.2 mg/kg reads like this: under setting [6], -1%; under setting [7], -14%; under setting [8], 17%; under setting [9], -26%.
Take `CCOc1cc2c(NC(=O)Nc3ccc(SC)cc3)c(O)nc(C)c2cc1OC` [BBA]: the change in vivo at 6.2 mg/kg runs as follows: under setting [2], 2%; under setting [5], 23%; under setting [3], 53%; under setting [4], -17%.
In the case of `CCCCNC(=O)Nc1c(O)nc(C)c2cc(OC)c(OC)cc12` [Compound BR, 4-(N'-n-Butylureido)-3-hydroxy-6,7-dimethoxy-1-methylisoquinoline Hemihydrate], the change in vivo at 6.2 mg/kg was -9% under setting [2], -1% under setting [5], 128% under setting [3] and -56% under setting [4].
With `CCOc1cc2c(C)nc(O)c(NC(N)=O)c2cc1OC` [BS], the change in vivo at 6.2 mg/kg reads like this: under setting [2], 4%; under setting [3], 33%; under setting [4], -24%.
In the case of `C=CCNC(=O)Nc1c(O)nc(C)c2cc(OC)c(OC)cc12` [BAO, 4-(N'-allylureido)-3-hydroxy-6,7-dimethoxy-1-methylisoquinoline], the change in vivo at 1.2 mg/kg is -3% under setting [6], 8% under setting [7], 96% under setting [8] and -44% under setting [9].
With `CCOc1cc2c(NC(=O)Nc3ccc(OC)cc3)c(O)nc(C)c2cc1OC` [BAV], the change in vivo at 6.2 mg/kg by setting is: under setting [2], 9%; under setting [5], -5%; under setting [3], 35%; under setting [4], -29%.

For the origin of these results see patent US4714705A, “4-nitrogen substituted isoquinolinol compounds having cardiotonic, phosphodiesterase fraction III inhibiting properties and/or renal vasodilating properties” (Ortho Pharmaceutical Corporation, priority 1986, dated 1987).
